From ChEMBL document CHEMBL2311251, “Synthesis and structure-activity relationship of piperidine-derived non-urea soluble epoxide hydrolase inhibitors” (Bioorg Med Chem Lett, 2013)

Columns and labels:
[1] = biological target: T1, Bifunctional epoxide hydrolase 2 (Homo sapiens, UniProt P34913); assay: Inhibition of human sEH assessed as 6-methoxy-2-naphthaldehyde generation preincubated for 10 before addition of cyano(2-methyl-oxynaphthalen-6-yl)methyl trans-(3-phenyloxyran-2-yl) methyl carbonate by fluorescence analysis
T1 sequence (P34913 whole entry): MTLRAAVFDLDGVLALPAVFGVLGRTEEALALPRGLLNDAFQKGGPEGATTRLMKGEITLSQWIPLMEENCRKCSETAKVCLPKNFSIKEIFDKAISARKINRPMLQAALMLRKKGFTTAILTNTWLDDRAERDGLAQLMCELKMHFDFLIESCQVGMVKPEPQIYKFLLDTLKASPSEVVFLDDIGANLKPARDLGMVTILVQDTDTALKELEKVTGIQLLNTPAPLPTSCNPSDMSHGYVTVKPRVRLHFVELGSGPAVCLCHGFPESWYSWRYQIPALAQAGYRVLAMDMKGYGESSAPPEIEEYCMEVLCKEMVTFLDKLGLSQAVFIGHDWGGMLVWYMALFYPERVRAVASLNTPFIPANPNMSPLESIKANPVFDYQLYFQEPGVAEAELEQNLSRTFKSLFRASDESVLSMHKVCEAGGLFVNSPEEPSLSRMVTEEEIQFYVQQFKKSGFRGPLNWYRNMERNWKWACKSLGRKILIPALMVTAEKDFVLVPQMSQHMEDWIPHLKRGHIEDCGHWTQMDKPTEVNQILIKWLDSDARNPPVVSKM

Liver microsomes = assay: Half life in human liver microsomes after 90 mins by LC/MS analysis; format: ADME, Microsome; conditions: 1.5 h

| Compound | IC50 [1] [nM] | t1/2 (Liver microsomes) [min] |
| --- | --- | --- |
| Cc1ccc(S(=O)(=O)N2CCC(C(=O)Nc3ccc4ncccc4c3)CC2)c(C)c1 | 13 | – |
| Cc1ccc(S(=O)(=O)N2CCC(C(=O)Nc3ccc(F)cc3)CC2)c(C)c1 | 290 | – |
| Cc1ccc(S(=O)(=O)N2CCC(C(=O)NC3CCCC3)CC2)c(C)c1 | – | 14 |
| Cc1ccc(S(=O)(=O)N2CCC(C(=O)Nc3ccc(C(C)C)cc3)CC2)c(C)c1 | 6.7 | 25 |
| Cc1ccc(S(=O)(=O)N2CCC(C(=O)Nc3ccccc3O)CC2)c(C)c1 | 1.2 | 2.4 |
| Cc1ccc(S(=O)(=O)N2CCC(C(=O)NCC(C)C)CC2)c(C)c1 | 18 | – |
| Cc1ccc(S(=O)(=O)N2CCC(C(=O)Nc3ccc(OC(F)(F)F)cc3)CC2)c(C)c1 | 23 | – |
| Cc1ccc(S(=O)(=O)N2CCC(C(=O)Nc3ccc(C(=O)O)cc3)CC2)c(C)c1 | 17 | – |
| Cc1ccc(S(=O)(=O)N2CCC(C(=O)Nc3ccc(Br)cc3)CC2)c(C)c1 | 45 | – |
| Cc1ccc(S(=O)(=O)N2CCC(C(=O)Nc3cc(Cl)cc(Cl)c3)CC2)c(C)c1 | 25 | – |
| Cc1ccc(S(=O)(=O)N2CCC(C(=O)N[C@H]3C[C@@H]3c3ccccc3)CC2)c(C)c1 | 6900 | – |
| COc1ccc(NC(=O)C2CCN(S(=O)(=O)c3ccc(C)cc3C)CC2)cc1 | 25 | – |
| Cc1ccc(S(=O)(=O)N2CCC(C(=O)Nc3ccccc3Cl)CC2)c(C)c1 | 8.7 | – |
| Cc1ccc(S(=O)(=O)N2CCC(C(=O)Nc3ccc4ccccc4c3)CC2)c(C)c1 | 8.3 | 8.7 |
| Cc1ccc(S(=O)(=O)N2CCC(C(=O)Nc3ccccc3)CC2)c(C)c1 | 6.9 | – |
| Cc1ccc(S(=O)(=O)N2CCC(C(=O)Nc3ccc(Cl)c(C(F)(F)F)c3)CC2)c(C)c1 | 78 | – |
| Cc1ccc(S(=O)(=O)N2CCC(C(=O)Nc3cccc(C(F)(F)F)c3)CC2)c(C)c1 | 640 | – |
| Cc1ccc(S(=O)(=O)N2CCC(C(=O)NC3CC3)CC2)c(C)c1 | – | 180 |
| Cc1ccc(S(=O)(=O)N2CCC(C(=O)Nc3ccc(N4CCCCC4)c(C(N)=O)c3)CC2)c(C)c1 | 43 | – |
| Cc1ccc(S(=O)(=O)N2CCC(C(=O)Nc3ccc4cc(C(=O)O)ccc4c3)CC2)c(C)c1 | 0.6 | 36 |
| Cc1ccc(S(=O)(=O)N2CCC(C(=O)Nc3cccc4cnccc34)CC2)c(C)c1 | 23 | 220 |

| Compound | IC50 [1] [nM] | t1/2 (Liver microsomes) [min] |
| --- | --- | --- |
| COC(=O)c1ccc(NC(=O)C2CCN(S(=O)(=O)c3ccc(C)cc3C)CC2)cc1 | 8.5 | 3.7 |
| COC(=O)c1ccc2cc(NC(=O)C3CCN(S(=O)(=O)c4ccc(C)cc4C)CC3)ccc2c1 | 110 | – |
| Cc1ccc(S(=O)(=O)N2CCC(C(=O)Nc3ccc(Cl)cc3)CC2)c(C)c1 | 2200 | – |
| Cc1ccc(S(=O)(=O)N2CCC(C(=O)Nc3ccc(S(=O)(=O)C(F)(F)F)cc3)CC2)c(C)c1 | 1.6 | 36 |
| Cc1ccc(S(=O)(=O)N2CCC(C(=O)Nc3ccccc3F)CC2)c(C)c1 | 1.1 | – |
| Cc1ccc(S(=O)(=O)N2CCC(C(=O)NC34CC5CC(CC(C5)C3)C4)CC2)c(C)c1 | 1.7 | 14 |
| Cc1ccc(S(=O)(=O)N2CCC(C(=O)Nc3ccc4c(c3)OCO4)CC2)c(C)c1 | 5.2 | 46 |
| Cc1ccc(S(=O)(=O)N2CCC(C(=O)Nc3ccc(N4CCOCC4)cc3)CC2)c(C)c1 | 250 | – |
| Cc1ccc(S(=O)(=O)N2CCC(C(=O)Nc3ccc(Oc4ccccc4)cc3)CC2)c(C)c1 | 20 | – |
| Cc1ccc(S(=O)(=O)N2CCC(C(=O)Nc3ccc(Cl)c(Cl)c3)CC2)c(C)c1 | 55 | – |
| Cc1ccc(S(=O)(=O)N2CCC(C(=O)Nc3cnc4ccccc4c3)CC2)c(C)c1 | 2.3 | – |
| Cc1ccc(S(=O)(=O)N2CCC(C(=O)Nc3ccc(C(F)(F)F)cc3)CC2)c(C)c1 | 30 | – |
| Cc1ccc(S(=O)(=O)N2CCC(C(=O)Nc3cccc4cccnc34)CC2)c(C)c1 | 6 | 11 |
| Cc1ccc(S(=O)(=O)N2CCC(C(=O)Nc3ccc(N4CCCCC4)cc3)CC2)c(C)c1 | 20 | – |
| Cc1ccc(S(=O)(=O)N2CCC(C(=O)Nc3ccccc3C)CC2)c(C)c1 | 20 | – |
| Cc1ccc(S(=O)(=O)N2CCC(C(=O)NC3CCCc4ccccc43)CC2)c(C)c1 (stereo unspecified) | 41 | – |
| COc1cc2c(cc1NC(=O)C1CCN(S(=O)(=O)c3ccc(C)cc3C)CC1)OCO2 | 30000 | – |
| Cc1ccc(S(=O)(=O)N2CCC(C(=O)Nc3ccccc3Br)CC2)c(C)c1 | 0.6 | – |
| Cc1ccc(S(=O)(=O)N2CCC(C(=O)Nc3ccc([N+](=O)[O-])cc3)CC2)c(C)c1 | 12 | – |
| Cc1ccc(S(=O)(=O)N2CCC(C(=O)Nc3ccc(O)cc3)CC2)c(C)c1 | 0.4 | – |
